This note sets out measurements from patent US20110280815A1, “COMPOSITION FOR INHIBITING MELANIN PRODUCTION AND APPLICATION THEREOF” (priority 2010, published 2011).

One assay has as its system B16-F1 cells. Put plainly: Inhibiting melanin in cell line model, mouse melanoma B16-F1. The assay is classed as cell-based. The conditions noted are these: for inhibition of melanin production of mouse melanoma (microscopic image): 200 μg/ml, cultured 72 hours (FIG. 2); for inhibition at 200 µg/mL: Mus musculus, B16-F1, 200 μg/mL in medium. Here is the method: (§1) In this example, the tyrosinase inhibitor of the present invention was used to inhibit melanin production in melanocytes. The cell lines used in this example are mouse melanoma (B16-F1; ATCC CRL-6323) and human epidermal melanocyte (HEM). After 72 hours, cells and cell culture medium were collected separately. Then, the collected cells were destroyed by ultrasonic for melanin examination.

For assay [1], the system named is human epidermal melanocyte (HEM). Put plainly: Inhibiting melanin in cell line model, human epidermal melanocyte (HEM). The assay is classed as cell-based. The following applies: 200 μg/mL in medium, 72 hours, compared with blank control group (FIG. 5). On the procedure: as §1
The next assay concerns tyrosinase. Put plainly: Inhibiting tyrosinase (L-Dopa oxidation, dopachrome absorption at 492 nm). The assay is classed as biochemical. The conditions noted are these: series diluted sample, 0.1 U tyrosinase, 1 mM L-Dopa, 37° C., compared with blank control group (FIG. 1). Here is the method:
In this example, 90 μL of 0.1 U tyrosinase solution was added in to the wells of a 96-well plate. Then, 50 μL of a series diluted sample was added into the wells as an experimental group or as a blank control group, wherein said sample is MOPS, SB-12(N-Dodecyl-N,N-dimethyl-3-ammonio-1-propanesulfonate), ACES or Tris-HCl, and 0.1 M phosphate buffer and a substance lysis solution were used as blank tests for the experimental group and the blank control group, respectively. Each sample in the experiment was at least triplicated. The test plate was placed at 37° C., 400 rpm for 5 min to mix the contents thereof homogeneously. Then, the test plate was placed into a machine for an absorption examination (492 nm). An average of two detected data was obtained as a background value. The test plate was then taken out, and 60 μL of 1 mM L-Dopa solution was added into each well. […] At this time, an average of two detected data was obtained as a test value.
In example 1, by using the tyrosinase inhibitor of the present invention, tyrosinase was inhibited to prevent melanin production. […] Accordingly, in this example, the absorption of the reaction at 492 nm was detected for examining the production of dopaquinone.
The data in the figure was calculated by the following formula: […]

[2] abbreviates: 72 hours (FIG. 3), read-out: ability of inhibiting melanin production of B16-F1 cells.
[3] abbreviates: 72 hours, cell culture medium (FIG. 4), read-out: ability of inhibiting melanin secretion of B16-F1 cells.

Where two headings read alike, the source gives them in different places.

As for `O=S(=O)(O)CCCN1CCOCC1` [MOPS, 3-(N-Morpholino) propanesulfonic acid], the “inhibition of melanin production of mouse melanoma (microscopic image)” value in the assay on B16-F1 cells was “significantly inhibit”. Also, the inhibition at 200 µg/mL was found to be 41.7% with B16-F1 cells (setting [2]) and 42.3% in the assay on B16-F1 cells (setting [3]). Moreover, the “inhibition rate of melanin production of human epidermal melanocyte” value in assay [1] is “inhibition rate was increased”. Moreover, the “inhibition of tyrosinase activity” value in the assay on tyrosinase is “significantly inhibit the activity of tyrosinase”.
`NC(=O)CNCCS(=O)(=O)O` [ACES, N-(2-Acetamido)-2-aminoethanesulfonic acid]: the “inhibition of melanin production of mouse melanoma (microscopic image)” value in the assay on B16-F1 cells was “significantly inhibit”. The inhibition at 200 µg/mL in the assay on B16-F1 cells (setting [2]) turned out to be 35%; in the assay on B16-F1 cells (setting [3]), 38.9%. Further, in assay [1], the “inhibition rate of melanin production of human epidermal melanocyte” value is reported as “inhibition rate was increased”. In addition, the “inhibition of tyrosinase activity” value in the assay with tyrosinase is “significantly inhibit the activity of tyrosinase”.
